Experiments:
Assay in all cases: Kinase binding assay (kinase-tagged T7 phage, qPCR), Kd
FGFR4 = target: T1, FGFR4 (Homo sapiens, UniProt P22455); conditions: read-out: FGFR4 (Kd nM)
T1 construct: made in house; host or cells: E. coli derived from BL21, infected with T7 phage
Procedure: (§1) Kinase-tagged T7 phage strains were prepared in an E. coli host derived from the BL21 strain. E. coli were grown to log-phase and infected with T7 phage and incubated with shaking at 32° C. until lysis. The lysates were centrifuged and filtered to remove cell debris. Streptavidin-coated magnetic beads were treated with biotinylated small molecule ligands for 30 minutes at room temperature to generate affinity resins for kinase assays. The liganded beads were blocked with excess biotin and washed with blocking buffer SeaBlock (Pierce), 1% BSA, 0.05% Tween 20, 1 mM DTT to remove unbound ligand and to reduce non-specific binding. Binding reactions were assembled by combining kinases, liganded affinity beads, and test compounds in 1× binding buffer (20% SeaBlock, 0.17×PBS, 0.05% Tween 20, 6 mM DTT).
(§2) Test compounds were prepared as 111X stocks in 100% DMSO. Kds were determined using an 11-point 3-fold compound dilution series with three DMSO control points. All compounds for Kd measurements are distributed by acoustic transfer (non-contact dispensing) in 100% DMSO. The compounds were then diluted directly into the assays such that the final concentration of DMSO was 0.9%. All reactions performed in polypropylene 384-well plate. Each was a final volume of 0.02 ml. The assay plates were incubated at room temperature with shaking for 1 hour and the affinity beads were washed with wash buffer (1×PBS, 0.05% Tween 20). The beads were then re-suspended in elution buffer (1×PBS, 0.05% Tween 20, 0.5 μM non-biotinylated affinity ligand) and incubated at room temperature with shaking for 30 minutes. The kinase concentration in the eluates was measured by qPCR.
(§3) Binding constants were calculated with a standard dose-response curve using the Hill equation: […]
(§4) The Hill Slope was set to −1. Curves were fitted using a non-linear least square fit with the Levenberg-Marquardt algorithm.

FGFR3 = target: T2, FGFR3 (Homo sapiens, UniProt P22607); conditions: read-out: FGFR3 (Kd nM)
T2 construct: made in house; host or cells: E. coli derived from BL21, infected with T7 phage
Procedure: as §1, §2, §3, §4

FGFR1 = target: T3, FGFR1 (Homo sapiens, UniProt P11362); conditions: read-out: FGFR1 (Kd nM)
T3 construct: made in house; host or cells: E. coli derived from BL21, infected with T7 phage
Procedure: (§5) Kinase-tagged T7 phage strains were prepared in an E. coli host derived from the BL21 strain. E. coli were grown to log-phase and infected with T7 phage and incubated with shaking at 32° C. until lysis. The lysates were centrifuged and filtered to remove cell debris. […] The liganded beads were blocked with excess biotin and washed with blocking buffer SeaBlock (Pierce), 1% BSA, 0.05% Tween 20, 1 mM DTT to remove unbound ligand and to reduce non-specific binding.
(§6) Kds were determined using an 11-point 3-fold compound dilution series with three DMSO control points. […] The compounds were then diluted directly into the assays such that the final concentration of DMSO was 0.9%. All reactions performed in polypropylene 384-well plate. Each was a final volume of 0.02 ml. […] The kinase concentration in the eluates was measured by qPCR.
as §3, §4

FGFR2 = target: T4, FGFR2 (Homo sapiens, UniProt P21802); conditions: read-out: FGFR2 (Kd nM)
T4 construct: made in house; host or cells: E. coli derived from BL21, infected with T7 phage
Procedure: as §5, §6, §3, §4

T4 sequence (P21802 22-821): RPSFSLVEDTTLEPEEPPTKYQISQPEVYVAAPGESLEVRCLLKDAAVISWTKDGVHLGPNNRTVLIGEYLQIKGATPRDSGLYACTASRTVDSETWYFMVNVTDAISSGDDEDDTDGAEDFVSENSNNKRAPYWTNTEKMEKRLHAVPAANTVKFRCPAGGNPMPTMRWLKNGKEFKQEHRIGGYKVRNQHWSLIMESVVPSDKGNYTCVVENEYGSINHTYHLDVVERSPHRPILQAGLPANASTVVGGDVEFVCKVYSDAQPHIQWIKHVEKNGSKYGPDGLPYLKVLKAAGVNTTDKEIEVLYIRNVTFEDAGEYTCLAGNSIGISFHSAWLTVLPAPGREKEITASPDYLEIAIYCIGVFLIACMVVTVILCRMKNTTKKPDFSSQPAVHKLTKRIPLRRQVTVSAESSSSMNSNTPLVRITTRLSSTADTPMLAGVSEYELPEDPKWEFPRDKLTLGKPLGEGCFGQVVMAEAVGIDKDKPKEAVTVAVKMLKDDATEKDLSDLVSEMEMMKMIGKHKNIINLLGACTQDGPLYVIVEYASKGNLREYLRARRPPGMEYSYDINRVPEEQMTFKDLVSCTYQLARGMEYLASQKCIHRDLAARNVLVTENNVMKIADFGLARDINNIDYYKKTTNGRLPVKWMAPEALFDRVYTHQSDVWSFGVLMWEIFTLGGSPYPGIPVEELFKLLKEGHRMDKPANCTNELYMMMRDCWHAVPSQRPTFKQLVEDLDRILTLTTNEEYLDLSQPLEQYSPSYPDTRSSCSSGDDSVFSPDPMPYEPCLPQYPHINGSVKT
T3 sequence (P11362 22-822): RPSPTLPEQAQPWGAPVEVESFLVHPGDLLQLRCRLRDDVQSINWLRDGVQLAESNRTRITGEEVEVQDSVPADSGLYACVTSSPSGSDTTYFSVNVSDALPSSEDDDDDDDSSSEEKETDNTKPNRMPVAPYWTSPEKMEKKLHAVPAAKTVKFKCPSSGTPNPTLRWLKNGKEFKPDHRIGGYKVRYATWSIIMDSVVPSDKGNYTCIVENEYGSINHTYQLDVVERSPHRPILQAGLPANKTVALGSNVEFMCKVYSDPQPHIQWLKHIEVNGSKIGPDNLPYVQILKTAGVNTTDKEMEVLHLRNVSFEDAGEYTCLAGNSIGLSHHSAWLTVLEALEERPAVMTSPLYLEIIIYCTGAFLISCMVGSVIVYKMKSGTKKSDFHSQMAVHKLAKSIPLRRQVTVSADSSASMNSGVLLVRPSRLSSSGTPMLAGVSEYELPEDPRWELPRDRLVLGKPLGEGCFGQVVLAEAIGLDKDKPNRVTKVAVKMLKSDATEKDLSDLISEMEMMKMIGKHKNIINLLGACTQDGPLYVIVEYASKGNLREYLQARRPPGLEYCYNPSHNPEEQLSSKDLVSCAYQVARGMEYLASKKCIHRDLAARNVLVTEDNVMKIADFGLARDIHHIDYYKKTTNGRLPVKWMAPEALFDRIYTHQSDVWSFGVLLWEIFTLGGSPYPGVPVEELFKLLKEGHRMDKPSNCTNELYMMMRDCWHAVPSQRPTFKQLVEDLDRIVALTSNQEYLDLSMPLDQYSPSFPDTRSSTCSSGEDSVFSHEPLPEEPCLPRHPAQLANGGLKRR
T1 sequence (P22455 22-802): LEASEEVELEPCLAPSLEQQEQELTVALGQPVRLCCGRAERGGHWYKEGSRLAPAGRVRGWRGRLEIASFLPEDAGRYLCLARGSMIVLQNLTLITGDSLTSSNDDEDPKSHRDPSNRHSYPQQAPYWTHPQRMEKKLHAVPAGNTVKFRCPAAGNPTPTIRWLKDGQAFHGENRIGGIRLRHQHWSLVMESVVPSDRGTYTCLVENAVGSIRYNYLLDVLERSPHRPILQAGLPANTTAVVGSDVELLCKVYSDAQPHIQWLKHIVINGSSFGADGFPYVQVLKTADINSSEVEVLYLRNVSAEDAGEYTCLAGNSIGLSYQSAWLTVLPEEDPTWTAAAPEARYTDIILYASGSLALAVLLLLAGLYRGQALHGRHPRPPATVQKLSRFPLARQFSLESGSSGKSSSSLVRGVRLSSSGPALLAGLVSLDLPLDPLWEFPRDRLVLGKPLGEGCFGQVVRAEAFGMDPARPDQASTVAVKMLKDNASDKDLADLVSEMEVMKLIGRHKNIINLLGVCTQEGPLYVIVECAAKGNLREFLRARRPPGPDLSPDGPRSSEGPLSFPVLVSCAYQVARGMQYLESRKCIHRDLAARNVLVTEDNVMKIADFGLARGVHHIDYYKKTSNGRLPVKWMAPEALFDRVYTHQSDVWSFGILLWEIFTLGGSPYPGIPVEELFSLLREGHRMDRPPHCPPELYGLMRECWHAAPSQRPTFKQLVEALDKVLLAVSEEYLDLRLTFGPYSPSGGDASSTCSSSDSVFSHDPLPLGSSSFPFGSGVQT
T2 sequence (P22607 23-806): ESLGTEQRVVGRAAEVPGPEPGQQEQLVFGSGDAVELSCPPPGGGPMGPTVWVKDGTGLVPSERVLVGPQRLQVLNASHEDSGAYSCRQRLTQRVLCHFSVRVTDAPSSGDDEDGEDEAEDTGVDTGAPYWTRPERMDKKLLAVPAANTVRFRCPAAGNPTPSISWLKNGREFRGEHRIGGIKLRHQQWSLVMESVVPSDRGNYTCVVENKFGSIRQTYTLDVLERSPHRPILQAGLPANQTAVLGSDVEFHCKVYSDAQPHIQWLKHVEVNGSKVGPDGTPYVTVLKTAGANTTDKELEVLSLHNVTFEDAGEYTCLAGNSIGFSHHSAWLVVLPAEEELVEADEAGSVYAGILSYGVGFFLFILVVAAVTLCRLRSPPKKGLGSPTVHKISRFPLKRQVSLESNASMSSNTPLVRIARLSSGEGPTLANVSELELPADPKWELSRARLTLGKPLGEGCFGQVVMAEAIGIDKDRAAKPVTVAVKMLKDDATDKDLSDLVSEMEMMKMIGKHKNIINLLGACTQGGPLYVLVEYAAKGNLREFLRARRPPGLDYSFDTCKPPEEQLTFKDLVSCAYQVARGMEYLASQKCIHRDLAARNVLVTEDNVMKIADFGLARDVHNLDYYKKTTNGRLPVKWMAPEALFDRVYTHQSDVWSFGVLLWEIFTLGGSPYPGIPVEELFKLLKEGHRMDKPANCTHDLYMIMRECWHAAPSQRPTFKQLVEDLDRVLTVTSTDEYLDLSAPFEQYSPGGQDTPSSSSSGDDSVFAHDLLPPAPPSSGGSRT

`COc1cc(NCc2cccnc2)cc(-c2n[nH]c3ccc(O[C@H](C)c4c(Cl)cncc4Cl)cc23)c1` [Example 47, 3-[5-[(1R)-1-(3,5-dichloro-4-pyridyl)ethoxy]-1H-indazol-3-yl]-5-methoxy-N-(3-pyridyl-methyl)aniline] showed a Kd (FGFR4) of 250 to 1000 nM, a Kd (FGFR3) of 0.1 to 100 nM and a Kd (FGFR1) of 100 to 250 nM. It also gave a Kd (FGFR2) of 100 to 250 nM.

In the case of `COc1cc(-c2n[nH]c3ccc(O[C@H](C)c4c(Cl)cncc4Cl)cc23)cc(C#N)c1OC` [Example 81, 5-[5-[(1R)-1-(3,5-dichloro-4-pyridyl)ethoxy]-1H-indazol-3-yl]-2,3-dimethoxy-benzonitrile], the Kd (FGFR4) is reported as 0.1 to 100 nM, the Kd (FGFR3) is reported as > 1000 nM and the Kd (FGFR1) is reported as > 1000 nM. For the same compound, the Kd (FGFR2) was > 1000 nM.

In the case of `COc1cc(OC(F)(F)F)cc(-c2n[nH]c3ccc(O[C@H](C)c4c(C)cnnc4C)cc23)c1` [Example 63, 5-[(1R)-1-(3,5-dimethylpyridazin-4-yl)ethoxy]-3-[3-methoxy-5-(trifluoromethoxy)phenyl]-1H-indazole], the Kd (FGFR4) is reported as 0.1 to 100 nM, the Kd (FGFR3) is reported as 250 to 1000 nM and the Kd (FGFR1) is reported as > 1000 nM. The Kd (FGFR2) was > 1000 nM.

With `C[C@@H](Oc1ccc2[nH]nc(-c3cnc4c(c3)N(CC(F)(F)F)CCO4)c2c1)c1c(Cl)cncc1Cl` [Example 139, (R)-7-(5-(1-(3,5-dichloropyridin-4-yl)ethoxy)-1H-indazol-3-yl)-1-(2,2,2-trifluoroethyl)-2,3-dihydro-1H-pyrido[2,3-b][1,4]oxazine 2,2,2-trifluoroacetate] the Kd (FGFR4) was > 1000 nM, the Kd (FGFR3) was > 1000 nM and the Kd (FGFR1) was > 1000 nM. For the same compound, the Kd (FGFR2) was > 1000 nM.

In the case of `CC(C)N1CCOc2ncc(-c3n[nH]c4ccc(O[C@H](C)c5c(Cl)cncc5Cl)cc34)cc21` [Example 141, (R)-7-(5-(1-(3,5-dichloropyridin-4-yl)ethoxy)-1H-indazol-3-yl)-1-isopropyl-2,3-dihydro-1H-pyrido[2,3-b][1,4]oxazine], the Kd (FGFR4) is reported as 0.1 to 100 nM, the Kd (FGFR3) is reported as > 1000 nM and the Kd (FGFR1) is reported as > 1000 nM. The Kd (FGFR2) was > 1000 nM.

For `Cc1cccc(C(=O)N2CCOc3ncc(-c4n[nH]c5ccc(O[C@H](C)c6c(Cl)cncc6Cl)cc45)cc32)n1` [Example 39, [7-[5-[(1R)-1-(3,5-dichloro-4-pyridyl)ethoxy]-1H-indazol-3-yl]-2,3-dihydro-pyrido[2,3-b][1,4]oxazin-1-yl]-(6-methyl-2-pyridyl)methanone], the Kd (FGFR4) was 0.1 to 100 nM, the Kd (FGFR3) was 250 to 1000 nM and the Kd (FGFR1) was > 1000 nM. The Kd (FGFR2) was > 1000 nM.

In the case of `COc1c(C#N)cc(-c2n[nH]c3ccc(O[C@H](C)c4c(C)cnnc4C)cc23)cc1C#N` [Example 85, 5-[5-[(1R)-1-(3,5-dimethylpyridazin-4-yl)ethoxy]-1H-indazol-3-yl]-2-methoxy-benzene-1,3-dicarbonitrile], the Kd (FGFR4) is reported as 0.1 to 100 nM, the Kd (FGFR3) is reported as 250 to 1000 nM and the Kd (FGFR1) is reported as > 1000 nM. The Kd (FGFR2) was > 1000 nM.

With `Cc1cnnc(C)c1[C@@H](C)Oc1ccc2[nH]nc(-c3cc(C#N)cc(OCC4CC4)c3)c2c1` [Example 78, 3-(cyclopropylmethoxy)-5-[5-[(1R)-1-(3,5-dimethylpyridazin-4-yl)ethoxy]-1H-indazol-3-yl]benzonitrile] the Kd (FGFR4) was 0.1 to 100 nM, the Kd (FGFR3) was 250 to 1000 nM and the Kd (FGFR1) was > 1000 nM. For the same compound, the Kd (FGFR2) was > 1000 nM.

`CCOc1cc(-c2n[nH]c3ccc(O[C@H](C)c4c(Cl)cncc4Cl)cc23)cnc1N` [Example 33, 5-[5-[(1R)-1-(3,5-Dichloro-4-pyridyl)ethoxy]-1H-indazol-3-yl]-3-ethoxy-pyridin-2-amine] was tested, and the Kd (FGFR4) was 0.1 to 100 nM, the Kd (FGFR3) was 250 to 1000 nM and the Kd (FGFR1) was > 1000 nM. For the same compound, the Kd (FGFR2) was > 1000 nM.

`C[C@@H](Oc1ccc2[nH]nc(-c3cnc(N[C@@H]4CCOC4)c(C#N)c3)c2c1)c1c(Cl)cncc1Cl` [Example 130, 5-(5-((R)-1-(3,5-dichloropyridin-4-yl)ethoxy)-1H-indazol-3-yl)-2-(((R)-tetrahydrofuran-3-yl)amino)nicotinonitrile] was tested, and the Kd (FGFR4) was 0.1 to 100 nM, the Kd (FGFR3) was 0.1 to 100 nM and the Kd (FGFR1) was 0.1 to 100 nM. It also gave a Kd (FGFR2) of 0.1 to 100 nM.

In the case of `COc1cc(C#N)cc(-c2n[nH]c3cc(OC)c(O[C@H](C)c4c(C)cnnc4C)cc23)c1` [Example 101, (R)-3-(5-(1-(3,5-dimethylpyridazin-4-yl)ethoxy)-6-methoxy-1H-indazol-3-yl)-5-methoxybenzonitrile], the Kd (FGFR3) is reported as 0.1 to 100 nM, the Kd (FGFR1) is reported as 0.1 to 100 nM and the Kd (FGFR2) is reported as 0.1 to 100 nM.

Source: patent publication US20240316022A1 (TYRA BIOSCIENCES, INC., priority 2021, published 2024)
